Data reported in paper PMC6437697 (Journal of Medicinal Chemistry, 2019).

Legend:
Assay in all cases: KINOMEscan
Format in all cases: binding
Conditions in all cases: read-out: % control activity remaining
[1] = biological target: T1, EGFR(G719S) (Homo sapiens, UniProt P00533, G719S)
T1 construct: purchased Eurofins DiscoverX KINOMEscan

[2] = biological target: T2, EPHA3 (Homo sapiens, UniProt P29320)
T2 construct: purchased Eurofins DiscoverX KINOMEscan
T2 sequence (P29320 21-983): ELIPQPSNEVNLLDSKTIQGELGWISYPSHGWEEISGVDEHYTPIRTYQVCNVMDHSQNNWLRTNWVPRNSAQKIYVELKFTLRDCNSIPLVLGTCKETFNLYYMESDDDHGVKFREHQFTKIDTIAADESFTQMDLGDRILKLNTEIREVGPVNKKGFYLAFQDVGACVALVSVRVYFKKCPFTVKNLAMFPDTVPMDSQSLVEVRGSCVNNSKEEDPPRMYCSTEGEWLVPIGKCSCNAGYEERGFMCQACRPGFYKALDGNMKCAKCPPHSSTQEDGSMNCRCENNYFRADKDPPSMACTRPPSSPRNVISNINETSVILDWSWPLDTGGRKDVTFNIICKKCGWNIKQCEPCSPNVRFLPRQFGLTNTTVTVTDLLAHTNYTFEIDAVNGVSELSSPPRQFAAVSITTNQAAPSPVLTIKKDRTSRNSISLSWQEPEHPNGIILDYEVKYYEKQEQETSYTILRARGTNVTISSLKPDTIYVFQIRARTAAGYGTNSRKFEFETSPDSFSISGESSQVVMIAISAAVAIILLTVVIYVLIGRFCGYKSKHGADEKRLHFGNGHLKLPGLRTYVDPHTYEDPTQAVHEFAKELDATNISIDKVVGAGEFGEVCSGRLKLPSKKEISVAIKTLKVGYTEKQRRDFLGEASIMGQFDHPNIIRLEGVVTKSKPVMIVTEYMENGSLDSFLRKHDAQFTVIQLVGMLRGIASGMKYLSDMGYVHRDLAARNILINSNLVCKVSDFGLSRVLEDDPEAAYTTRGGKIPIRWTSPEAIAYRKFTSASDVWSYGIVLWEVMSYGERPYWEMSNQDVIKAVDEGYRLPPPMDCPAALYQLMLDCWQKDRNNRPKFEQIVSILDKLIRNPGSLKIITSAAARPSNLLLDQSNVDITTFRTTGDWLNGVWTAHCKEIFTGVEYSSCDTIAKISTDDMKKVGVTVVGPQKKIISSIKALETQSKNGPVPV

[3] = biological target: T3, ITK (Homo sapiens, UniProt Q08881)
T3 construct: purchased Eurofins DiscoverX KINOMEscan
T3 sequence (Q08881 1-620): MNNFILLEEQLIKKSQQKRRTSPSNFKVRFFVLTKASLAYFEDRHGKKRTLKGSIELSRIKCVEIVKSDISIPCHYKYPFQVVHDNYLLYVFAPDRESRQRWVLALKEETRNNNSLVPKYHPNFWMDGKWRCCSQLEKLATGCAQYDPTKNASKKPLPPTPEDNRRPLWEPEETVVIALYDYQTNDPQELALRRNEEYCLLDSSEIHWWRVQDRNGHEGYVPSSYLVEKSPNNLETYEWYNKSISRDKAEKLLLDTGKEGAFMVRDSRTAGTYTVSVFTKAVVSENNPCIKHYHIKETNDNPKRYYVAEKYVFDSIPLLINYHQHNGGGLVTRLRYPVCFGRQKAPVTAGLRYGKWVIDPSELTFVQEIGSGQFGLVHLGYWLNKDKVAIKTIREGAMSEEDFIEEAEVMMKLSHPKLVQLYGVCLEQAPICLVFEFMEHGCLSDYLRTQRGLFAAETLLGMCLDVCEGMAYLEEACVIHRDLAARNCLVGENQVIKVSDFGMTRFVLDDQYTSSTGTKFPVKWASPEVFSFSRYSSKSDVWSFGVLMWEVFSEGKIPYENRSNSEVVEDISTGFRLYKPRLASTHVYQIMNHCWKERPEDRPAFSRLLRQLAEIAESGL

[4] = biological target: T4, PIK3CA(M1043I) (Homo sapiens, UniProt P42336, M1043I)
T4 construct: purchased Eurofins DiscoverX KINOMEscan
T4 sequence (P42336 whole entry M1043I): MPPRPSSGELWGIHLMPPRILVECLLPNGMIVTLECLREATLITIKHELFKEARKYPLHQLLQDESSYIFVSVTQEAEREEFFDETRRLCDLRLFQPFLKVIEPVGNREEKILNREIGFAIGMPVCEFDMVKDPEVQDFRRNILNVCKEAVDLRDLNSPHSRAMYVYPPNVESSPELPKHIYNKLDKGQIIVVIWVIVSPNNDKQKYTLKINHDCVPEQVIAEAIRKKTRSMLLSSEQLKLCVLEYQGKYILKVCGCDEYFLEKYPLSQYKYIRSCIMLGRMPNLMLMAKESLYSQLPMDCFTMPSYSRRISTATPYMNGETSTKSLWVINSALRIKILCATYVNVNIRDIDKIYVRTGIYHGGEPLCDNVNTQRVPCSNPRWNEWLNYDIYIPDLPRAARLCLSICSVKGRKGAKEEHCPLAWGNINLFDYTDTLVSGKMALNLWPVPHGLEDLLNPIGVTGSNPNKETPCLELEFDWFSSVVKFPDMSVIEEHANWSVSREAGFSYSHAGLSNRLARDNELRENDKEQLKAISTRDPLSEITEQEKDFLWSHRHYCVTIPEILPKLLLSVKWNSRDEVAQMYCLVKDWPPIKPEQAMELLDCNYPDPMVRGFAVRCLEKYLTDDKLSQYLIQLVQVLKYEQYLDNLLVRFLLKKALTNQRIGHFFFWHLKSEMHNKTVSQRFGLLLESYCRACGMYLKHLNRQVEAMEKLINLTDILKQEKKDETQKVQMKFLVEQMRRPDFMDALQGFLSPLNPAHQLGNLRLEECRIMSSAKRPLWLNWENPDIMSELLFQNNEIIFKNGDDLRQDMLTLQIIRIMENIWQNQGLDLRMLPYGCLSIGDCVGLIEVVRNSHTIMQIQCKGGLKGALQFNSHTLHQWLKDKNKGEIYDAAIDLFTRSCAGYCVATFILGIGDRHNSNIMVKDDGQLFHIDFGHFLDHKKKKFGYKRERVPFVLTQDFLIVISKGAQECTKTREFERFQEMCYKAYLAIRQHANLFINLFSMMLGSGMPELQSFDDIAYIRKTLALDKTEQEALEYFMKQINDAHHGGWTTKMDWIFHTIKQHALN

[5] = biological target: T5, TTK (Homo sapiens, UniProt P33981)
T5 construct: purchased Eurofins DiscoverX KINOMEscan
T5 sequence (P33981 1-857): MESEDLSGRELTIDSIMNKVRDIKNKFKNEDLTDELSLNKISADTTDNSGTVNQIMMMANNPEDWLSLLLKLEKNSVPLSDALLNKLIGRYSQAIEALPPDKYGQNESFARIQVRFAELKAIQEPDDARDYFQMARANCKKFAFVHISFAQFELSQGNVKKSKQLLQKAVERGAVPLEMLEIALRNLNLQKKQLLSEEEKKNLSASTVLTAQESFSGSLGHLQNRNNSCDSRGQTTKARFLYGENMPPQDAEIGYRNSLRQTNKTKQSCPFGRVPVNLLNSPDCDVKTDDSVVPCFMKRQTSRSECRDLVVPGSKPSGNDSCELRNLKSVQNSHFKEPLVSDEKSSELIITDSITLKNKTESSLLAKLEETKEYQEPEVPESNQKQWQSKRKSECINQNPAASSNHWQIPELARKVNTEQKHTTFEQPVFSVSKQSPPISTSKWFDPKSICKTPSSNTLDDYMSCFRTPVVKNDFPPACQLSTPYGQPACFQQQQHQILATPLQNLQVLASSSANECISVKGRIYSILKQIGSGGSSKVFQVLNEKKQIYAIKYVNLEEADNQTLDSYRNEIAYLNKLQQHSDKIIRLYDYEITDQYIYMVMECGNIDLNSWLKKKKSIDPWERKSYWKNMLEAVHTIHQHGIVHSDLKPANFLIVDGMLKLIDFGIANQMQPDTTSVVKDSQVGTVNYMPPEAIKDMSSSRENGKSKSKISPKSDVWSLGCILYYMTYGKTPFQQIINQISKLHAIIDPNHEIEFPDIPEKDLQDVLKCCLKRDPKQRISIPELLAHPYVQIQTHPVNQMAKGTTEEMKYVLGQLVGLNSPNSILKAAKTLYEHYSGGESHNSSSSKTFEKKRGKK

T1 sequence (P00533 25-1210 G719S limits assumed): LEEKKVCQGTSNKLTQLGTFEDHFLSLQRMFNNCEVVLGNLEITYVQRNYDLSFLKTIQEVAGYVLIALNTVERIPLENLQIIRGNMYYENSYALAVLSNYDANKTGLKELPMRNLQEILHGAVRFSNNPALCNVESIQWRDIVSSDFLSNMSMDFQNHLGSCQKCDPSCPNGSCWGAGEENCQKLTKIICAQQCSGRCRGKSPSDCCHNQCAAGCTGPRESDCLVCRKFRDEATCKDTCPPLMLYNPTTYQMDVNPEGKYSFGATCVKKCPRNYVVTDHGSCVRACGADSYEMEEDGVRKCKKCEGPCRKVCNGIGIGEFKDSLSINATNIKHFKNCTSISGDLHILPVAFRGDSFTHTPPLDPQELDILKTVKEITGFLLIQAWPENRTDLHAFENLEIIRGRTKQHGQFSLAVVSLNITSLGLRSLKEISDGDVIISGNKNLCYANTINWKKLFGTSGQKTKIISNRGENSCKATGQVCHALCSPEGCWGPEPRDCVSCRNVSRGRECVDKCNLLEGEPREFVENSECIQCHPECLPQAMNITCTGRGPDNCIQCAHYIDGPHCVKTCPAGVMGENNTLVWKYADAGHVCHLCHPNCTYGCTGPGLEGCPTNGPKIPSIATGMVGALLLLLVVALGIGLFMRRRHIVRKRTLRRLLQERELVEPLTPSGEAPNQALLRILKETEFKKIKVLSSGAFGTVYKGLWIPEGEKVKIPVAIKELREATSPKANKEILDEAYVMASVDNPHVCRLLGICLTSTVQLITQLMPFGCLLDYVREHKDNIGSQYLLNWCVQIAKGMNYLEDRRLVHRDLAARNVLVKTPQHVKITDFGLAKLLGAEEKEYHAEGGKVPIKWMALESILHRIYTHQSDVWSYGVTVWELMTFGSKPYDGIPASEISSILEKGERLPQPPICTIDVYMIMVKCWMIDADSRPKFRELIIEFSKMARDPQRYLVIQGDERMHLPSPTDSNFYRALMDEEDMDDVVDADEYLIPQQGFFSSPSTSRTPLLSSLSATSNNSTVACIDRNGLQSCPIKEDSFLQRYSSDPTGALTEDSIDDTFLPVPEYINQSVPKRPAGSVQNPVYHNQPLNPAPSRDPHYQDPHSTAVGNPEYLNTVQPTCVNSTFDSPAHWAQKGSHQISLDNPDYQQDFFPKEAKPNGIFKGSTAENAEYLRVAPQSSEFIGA

Row | SMILES | remaining binding at 1 µM [1] [%] | remaining binding at 1 µM [2] [%] | remaining binding at 1 µM [3] [%] | remaining binding at 1 µM [4] [%] | remaining binding at 1 µM [5] [%]
1 | Clc1cc(NCC2CC2)c2ncc(-c3ccc4[nH]ncc4c3)n2n1 [compound 2, 6-Chloro-N-(cyclopropylmethyl)-3-(1H-indazol-5-yl)imidazo[1,2-b]pyridazin-8-amine] | 85 | 78 | 92 | 59 | 77
2 | O=C(CN1CCOCC1)N[C@H]1CC[C@H](Nc2cc(Cl)nn3c(-c4ccc5[nH]ncc5c4)cnc23)CC1 [compound 26] | 97 | 88 | 84 | 81 | 54
3 | CN1CCC(CNc2cc(Cl)nn3c(-c4cc5nc(Nc6ccccc6)[nH]c5cc4F)cnc23)CC1 [compound 31, 6-Chloro-3-(6-fluoro-2-(phenylamino)-1H-benzo[d]imidazol-5-yl)-N-((1-methylpiperidin-4-yl)methyl)imidazo[1,2-b]pyridazin-8-amine] | 71 | 100 | 91 | 78 | 90
